Measurements reported in patent publication US20160158317A1, “Antimicrobial Peptide Variants and Polynucleotides Encoding Same” (Adenium Biotech A/S, priority 2010, published 2016).
Where a SMILES comes first, the peptide text is derived from it. Bridges are numbered along the chain shown (N, C = ends).

Experiment: Determination of the protein binding (90% serum, 30 kDa filter, HPLC)
Assay type: in vitro ADME
Conditions: serum
Protocol: Protein binding assays were performed as follows. The purified peptides were mixed with 90% serum and centrifuged through a 30 kDa filter. The ultra-filtrate and the non filtrated serum samples were quantified by HPLC measurements and the protein binding was subsequently calculated.

Row | SMILES | fraction unbound
1 | CC(C)[C@@H]1NC(=O)CNC(=O)[C@H](CC(N)=O)NC(=O)[C@H](CCCNC(=N)N)NC(=O)[C@H](CCCCN)NC(=O)[C@H](C(C)C)NC(=O)[C@@H]2CSSC[C@H](NC(=O)[C@H](C(C)C)NC(=O)[C@H](CCCNC(=N)N)NC1=O)C(=O)N[C@@H](Cc1c[nH]cn1)C(=O)N[C@@H](CCCNC(=N)N)C(=O)N[C@@H](CCCNC(=N)N)C(=O)N[C@H](C(=O)N[C@@H](CC(N)=O)C(=O)O)CSSC[C@H](NC(=O)[C@H](Cc1ccccc1)NC(=O)CN)C(=O)N[C@@H](Cc1ccccc1)C(=O)N[C@@H](Cc1ccc(O)cc1)C(=O)N[C@@H](C(C)C)C(=O)N2 [compound 137] (H-GFCFYVCVKRNGVRVCHRRCN-OH; disulfide 3-20, 7-16 (inferred); N-terminus and C-terminus assumed) | 0.14
2 | CC(C)[C@@H]1NC(=O)CNC(=O)[C@H](CC(N)=O)NC(=O)[C@H](CCCNC(=N)N)NC(=O)[C@H](Cc2ccc(O)cc2)NC(=O)[C@H](C(C)C)NC(=O)[C@@H]2CSSC[C@H](NC(=O)[C@H](C(C)C)NC(=O)[C@H](CCCNC(=N)N)NC1=O)C(=O)N[C@@H](Cc1ccc(O)cc1)C(=O)N[C@@H](CCCNC(=N)N)C(=O)N[C@@H](CCCNC(=N)N)C(=O)N[C@H](C(=O)N[C@@H](CO)C(=O)O)CSSC[C@H](NC(=O)[C@H](Cc1ccccc1)NC(=O)CN)C(=O)NCC(=O)N[C@@H](Cc1c[nH]cn1)C(=O)N[C@@H](C(C)C)C(=O)N2 [compound 144] (H-GFCGHVCVYRNGVRVCYRRCS-OH; disulfide 3-20, 7-16 (inferred); N-terminus and C-terminus assumed) | 0.32
3 | CC(C)[C@@H]1NC(=O)CNC(=O)[C@H](CC(N)=O)NC(=O)[C@H](CCCNC(=N)N)NC(=O)[C@H](Cc2ccc(O)cc2)NC(=O)[C@H](C(C)C)NC(=O)[C@@H]2CSSC[C@H](NC(=O)[C@H](CCCNC(=N)N)NC(=O)[C@H](CCCNC(=N)N)NC1=O)C(=O)N[C@@H](Cc1ccc(O)cc1)C(=O)N[C@@H](CCCNC(=N)N)C(=O)N[C@@H](CCCNC(=N)N)C(=O)N[C@H](C(=O)N[C@@H](CC(N)=O)C(=O)O)CSSC[C@H](NC(=O)[C@H](Cc1ccccc1)NC(=O)CN)C(=O)NCC(=O)N[C@@H](Cc1c[nH]cn1)C(=O)N[C@@H](C(C)C)C(=O)N2 [compound 155] (H-GFCGHVCVYRNGVRRCYRRCN-OH; disulfide 3-20, 7-16 (inferred); N-terminus and C-terminus assumed) | 0.17
4 | CC(C)[C@@H]1NC(=O)CNC(=O)[C@H](CC(N)=O)NC(=O)[C@H](CCCNC(=N)N)NC(=O)[C@H](Cc2ccc(O)cc2)NC(=O)[C@H](C(C)C)NC(=O)[C@@H]2CSSC[C@H](NC(=O)[C@H](CCCNC(=N)N)NC(=O)[C@H](CCCNC(=N)N)NC1=O)C(=O)N[C@@H](Cc1ccc(O)cc1)C(=O)N[C@@H](CCCNC(=N)N)C(=O)N[C@@H](CCCNC(=N)N)C(=O)N[C@H](C(=O)N[C@@H](CC(N)=O)C(=O)O)CSSC[C@H](NC(=O)[C@H](Cc1ccccc1)NC(=O)CN)C(=O)NCC(=O)N[C@@H](CCCNC(=N)N)C(=O)N[C@@H](C(C)C)C(=O)N2 [compound 170] (H-GFCGRVCVYRNGVRRCYRRCN-OH; disulfide 3-20, 7-16 (inferred); N-terminus and C-terminus assumed) | 0.13
5 | CC(C)[C@@H]1NC(=O)CNC(=O)[C@H](CC(N)=O)NC(=O)[C@H](CCCNC(=N)N)NC(=O)[C@H](Cc2ccc(O)cc2)NC(=O)[C@H](C(C)C)NC(=O)[C@@H]2CSSC[C@H](NC(=O)[C@H]([C@@H](C)O)NC(=O)[C@H](CCCNC(=N)N)NC1=O)C(=O)N[C@@H](Cc1ccc(O)cc1)C(=O)N[C@@H](CCCNC(=N)N)C(=O)N[C@@H](CCCNC(=N)N)C(=O)N[C@H](C(=O)N[C@@H](CC(N)=O)C(=O)O)CSSC[C@H](NC(=O)[C@H](Cc1ccccc1)NC(=O)CN)C(=O)NCC(=O)N[C@@H](CCCNC(=N)N)C(=O)N[C@@H](C(C)C)C(=O)N2 [compound 171] (H-GFCGRVCVYRNGVRTCYRRCN-OH; disulfide 3-20, 7-16) | 0.16
6 | CC(C)[C@@H]1NC(=O)CNC(=O)[C@H](CC(N)=O)NC(=O)[C@H](CCCNC(=N)N)NC(=O)[C@H](CCCNC(=N)N)NC(=O)[C@H](C(C)C)NC(=O)[C@@H]2CSSC[C@H](NC(=O)[C@H](C(C)C)NC(=O)[C@H](CCCNC(=N)N)NC1=O)C(=O)N[C@@H](Cc1ccc(O)cc1)C(=O)N[C@@H](CCCNC(=N)N)C(=O)N[C@@H](CCCNC(=N)N)C(=O)N[C@H](C(=O)N[C@@H](CC(N)=O)C(=O)O)CSSC[C@H](NC(=O)[C@H](Cc1ccccc1)NC(=O)CN)C(=O)NCC(=O)N[C@@H](CCCNC(=N)N)C(=O)N[C@@H](C(C)C)C(=O)N2 [compound 172] (H-GFCGRVCVRRNGVRVCYRRCN-OH; disulfide 3-20, 7-16 (inferred); N-terminus and C-terminus assumed) | 0.12
7 | CC(C)[C@@H]1NC(=O)CNC(=O)[C@H](CC(N)=O)NC(=O)[C@H](CCCNC(=N)N)NC(=O)[C@H](CCCCN)NC(=O)[C@H](C(C)C)NC(=O)[C@@H]2CSSC[C@H](NC(=O)[C@H](CCCCN)NC(=O)[C@H](CCCNC(=N)N)NC1=O)C(=O)N[C@@H](Cc1ccc(O)cc1)C(=O)N[C@@H](CCCNC(=N)N)C(=O)N[C@@H](CCCNC(=N)N)C(=O)N[C@H](C(=O)N[C@@H](CC(N)=O)C(=O)O)CSSC[C@H](NC(=O)[C@H](Cc1ccccc1)NC(=O)CN)C(=O)N[C@@H]([C@@H](C)O)C(=O)N[C@@H](Cc1ccc(O)cc1)C(=O)N[C@@H](C(C)C)C(=O)N2 [compound 195] (H-GFCTYVCVKRNGVRKCYRRCN-OH; disulfide 3-20, 7-16 (inferred); N-terminus and C-terminus assumed) | 0.05
8 | CC(C)[C@@H]1NC(=O)CNC(=O)[C@H](CC(N)=O)NC(=O)[C@H](CCCNC(=N)N)NC(=O)[C@H](Cc2ccc(O)cc2)NC(=O)[C@H](C(C)C)NC(=O)[C@@H]2CSSC[C@H](NC(=O)[C@H](CO)NC(=O)[C@H](CCCNC(=N)N)NC1=O)C(=O)N[C@@H](Cc1ccc(O)cc1)C(=O)N[C@@H](CCCNC(=N)N)C(=O)N[C@@H](CCCNC(=N)N)C(=O)N[C@H](C(=O)N[C@@H](CC(N)=O)C(=O)O)CSSC[C@H](NC(=O)[C@H](Cc1ccccc1)NC(=O)CN)C(=O)N[C@@H](Cc1ccc(O)cc1)C(=O)N[C@@H](CCCCN)C(=O)N[C@@H](C(C)C)C(=O)N2 [compound 206] (H-GFCYKVCVYRNGVRSCYRRCN-OH; disulfide 3-20, 7-16 (inferred); N-terminus and C-terminus assumed) | 0.14
9 | CC(C)[C@@H]1NC(=O)CNC(=O)[C@H](CC(N)=O)NC(=O)[C@H](CCCNC(=N)N)NC(=O)[C@H](Cc2ccc(O)cc2)NC(=O)[C@H](C(C)C)NC(=O)[C@@H]2CSSC[C@H](NC(=O)[C@H](CCCNC(=N)N)NC(=O)[C@H](CCCNC(=N)N)NC1=O)C(=O)N[C@@H](Cc1ccc(O)cc1)C(=O)N[C@@H](CCCNC(=N)N)C(=O)N[C@@H](CCCNC(=N)N)C(=O)N[C@H](C(=O)N[C@@H](CC(N)=O)C(=O)O)CSSC[C@H](NC(=O)[C@H](Cc1ccccc1)NC(=O)CN)C(=O)N[C@@H](Cc1ccc(O)cc1)C(=O)N[C@@H](CC(N)=O)C(=O)N[C@@H](C(C)C)C(=O)N2 [compound 207] (H-GFCYNVCVYRNGVRRCYRRCN-OH; disulfide 3-20, 7-16 (inferred); N-terminus and C-terminus assumed) | 0.09
